From US20130225522A1, “COMPOSITION FOR RELIEVING STIMULUS OF SKIN CAUSED BY DYE” (Amorepacific Corporation, priority 2009, published 2013)

Tested on: mouse ear
Test: mouse ear swelling test (MEST)
Assay type: in vivo
Conditions: BALB/c mouse
Method: To evaluate an effect of relieving skin irritation caused by a dye and for preventing or inhibiting inflammation caused by a dye, the mouse ear swelling test (MEST) using a mouse is carried out in the manner as described below.
A 7 weeks-aged mouse subject (BALC/c) is obtained and subjected to quarantine and adaptation for a period of 10 days. Then, the mouse is dehaired at its abdominal portion, and a main ingredient of dye, i.e. 3% paraphenylene diamine (PPD) is applied thereto in combination with a monosaccharide (glucose, galactose or fructose) or disaccharide (maltose, lactose or sucrose) for 7 days three times a day. As a control, each of dimethyl sulfoxide (DMSO) solvent and 3% PPD is applied. Twenty-four hours after the final application, the mouse ear is weighed. After weighing, the mouse ear is fixed in formalin and subjected to hematoxylin & eosin (H&E) staining for a histopathological test. Then, the thickness of the mouse ear is determined. Herein, the weight of the mouse ear is measured by biopsy of the ear of the mouse subject (Balb/c), to which each test sample is applied, using a 6 mm punch. The thickness of the mouse ear is determined by measuring the thickness of the ear of the mouse subject (Balb/c) stained after weighing the mouse ear weight by using a microscope.

## Nc1ccc(N)cc1 [PPD (3%), paraphenylene diamine]
3% PPD alone or in combination with saccharide applied for 7 days three times a day, formalin-fixed, H&E stained ear measured by microscope
  Ear thickness: 433.28 ± 11.57 μm
3% PPD alone or in combination with saccharide applied to dehaired abdominal portion for 7 days three times a day, ear weighed 24 h after final application, 6 mm punch biopsy
  Ear weight: 14.74 ± 0.23 mg
